Measurements reported in PubChem BioAssay AID1421 (Emory University Molecular Libraries Screening Center, 2008).
Calls of active or inactive are those of the source. How the calls were made is not given here.

biological target: Prostaglandin E2 receptor EP2 subtype (Homo sapiens) (UniProt P43116); assay: EP2 receptor modulators, dose response, cell-based, human EP2, PGE2 EC50 shift (AID 1421); details: EP2-expressing cells, PGE2 EC50 shift by compound
Sequence (P43116 whole entry, looked up): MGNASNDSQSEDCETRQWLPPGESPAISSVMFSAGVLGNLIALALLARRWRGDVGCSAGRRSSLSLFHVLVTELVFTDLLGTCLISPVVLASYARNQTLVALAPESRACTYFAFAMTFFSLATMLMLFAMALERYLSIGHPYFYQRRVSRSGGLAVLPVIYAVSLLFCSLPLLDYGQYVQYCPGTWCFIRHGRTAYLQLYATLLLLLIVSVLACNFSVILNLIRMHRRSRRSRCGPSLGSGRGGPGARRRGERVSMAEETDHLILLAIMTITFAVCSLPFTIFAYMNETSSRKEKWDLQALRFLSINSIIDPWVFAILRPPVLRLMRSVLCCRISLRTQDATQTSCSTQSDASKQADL

Row | Structure (SMILES) | outcome
1 | Cc1ccc(NC2=C(C(=O)c3ccccc3)N(C)S(=O)(=O)c3ccccc32)cc1 | active
2 | C/C(CCc1oc2ccc(Cl)cc2c1-c1ccc(C)o1)=N\O | active
3 | CCC(=O)N(CCC(Cc1ccccc1)c1ccco1)Cc1ccco1 (configuration not stated) | active
4 | CSc1ccccc1NC(=O)CN(C)Cc1cccc(Cl)c1 | active
5 | N#Cc1cn(-c2ccccc2)nc1-c1cc2ccccc2oc1=O | active

same assay, conditions: EP2-expressing cells, PGE2 EC50 shift by compound; measured here: PGE2 EC50 at 6.7 uM compound

Row | Structure (SMILES) | PGE2 EC50 with compound
6 | O=C1/C(=C/c2cccnc2)SC(=NCc2ccccc2)N1Cc1ccccc1 | 1.29 nM
7 | CC(C)c1nc(Cl)c(C#N)c2c1CSC(C)(C)C2 | 0.85 nM
8 | CC(=O)Nc1nnc(CCN2CCCCC2)s1 | 1.46 nM
9 | CCOP(=O)(OCC)c1nc(/C=C/c2ccccc2)oc1NCc1ccccc1 | 1.27 nM
10 | COc1ccc(Cc2n[nH]c(=S)n2Cc2ccccc2)cc1Cl | 1.41 nM
11 | O=C(O)CSc1cc(-c2ccccc2)nc2ccccc12 | 2.55 nM
12 | CCc1cc2cc3c(cc2nc1SCC(=O)OC(C)C)OCO3 | 0.7 nM
13 | CCc1nc2c(cnn2-c2ccc(Cl)cc2)c(=O)n1-c1ccc(OC)cc1 | 0.85 nM
14 | O=C(Cc1ccc(Cl)cc1)Nc1ccccc1Sc1ccccc1 | 1.07 nM
15 | COc1ccccc1/C=C(/C(=O)OCC(=O)Nc1ccccc1C(C)C)c1ccccc1 | 1.1 nM
16 | CCOC(=O)C1=C(CC)OC(N)=C(C#N)C1c1ccsc1 (configuration not stated) | 1.33 nM
17 | Cc1ccc(NC2=C(C(=O)c3ccccc3)N(C)S(=O)(=O)c3ccccc32)cc1 | 1.28 nM
18 | O=C(Cc1c(F)cccc1Cl)Nc1ccccc1N1CCCCC1 | 2.55 nM
19 | CN(Cc1c(C(=O)N2CCc3ccccc3C2)nc2ccc(Cl)cn12)C(C1CC1)C1CC1 | 0.9 nM
20 | Cc1cc(NC(=O)c2cc(-c3ccncc3)nc3c(C)cccc23)no1 | 1.16 nM
21 | CCOC(=O)c1sc(NC(=O)CN2C(=O)c3cccc4cccc(c34)C2=O)nc1C | 1.37 nM
22 | Cc1cccc(C)c1NC(=O)CSc1nnc(Cn2nnc(-c3ccccc3)n2)n1-c1ccccc1 | 0.65 nM
23 | CCCCOC(=O)Sc1nc2ccccc2o1 | 2.48 nM
24 | CCOC(=O)c1c(NC(=O)c2ccoc2C)sc(C(=O)N(C)C)c1C | 0.8 nM
25 | O=C(Nc1ccccc1N1CCCCC1)c1cccc([N+](=O)[O-])c1 | 0.9 nM
26 | CC1(C)OC(c2ccccc2)=C/C(=C/C=Nc2ccccc2)O1 | 0.99 nM

Row | Structure (SMILES) | PGE2 EC50 with compound
27 | C/C(CCc1oc2ccc(Cl)cc2c1-c1ccc(C)o1)=N\O | 0.81 nM
28 | Cc1ccc(-c2csc(Nc3ccc(C(=O)O)cc3)[n+]2Cc2ccccc2)cc1 | 0.77 nM
29 | S=c1[nH]nc(Cc2ccccc2)n1Cc1ccco1 | 2.65 nM
30 | C=CCOc1ccccc1CNc1cccc(F)c1 | 0.84 nM
31 | COC(=O)NC1(C(F)(F)F)C(=O)NC(C)=C1C(=O)OC (configuration not stated) | 1.02 nM
32 | CCC(=O)N(CCC(Cc1ccccc1)c1ccco1)Cc1ccco1 (configuration not stated) | 0.86 nM
33 | COC(=O)c1c(C)nc2ccccc2c1-c1ccccc1 | 1.54 nM
34 | COc1cc(-c2noc(-c3cccc(Cl)c3)n2)cc(OC)c1OC | 1.11 nM
35 | O=c1cc(N2CCCCC2)c(-c2ccccc2)nn1Cc1cccc(Cl)c1 | 0.32 nM
36 | C=CCSc1nc(N(CC)CC)c2sccc2n1 | 0.98 nM
37 | COc1ccccc1C(CC(=O)c1ccccc1)CC(=O)c1ccccc1 | 2.56 nM
38 | O=S(=O)(c1ccccc1)N(Cc1nc(-c2ccccc2)no1)C1CCCCC1 | 1.26 nM
39 | COc1ccc(N(Cc2ccccc2)S(=O)(=O)c2ccc(C)cc2)cc1 | 1.05 nM
40 | CSc1ccccc1NC(=O)CN(C)Cc1cccc(Cl)c1 | 0.97 nM
41 | COC(=O)c1ccc(-c2ccco2)n1Cc1cccc(C)c1 | 2.63 nM
42 | CC(=O)Nc1sc2c(c1C(c1cccs1)N1CCOCC1)CCCC2 (configuration not stated) | 0.99 nM
43 | CCCCC(CC)CN1CN(CC(CC)CCCC)CC(C)(N)C1 (configuration not stated) | 1.05 nM
44 | Cc1ccccc1Cn1c(Cc2ccccc2)nc2ccccc21 | 2.76 nM
45 | N#Cc1cn(-c2ccccc2)nc1-c1cc2ccccc2oc1=O | 0.99 nM
46 | COCCOC(=O)c1c(C)oc2ccc(OCc3ccccc3)cc12 | 1.04 nM
47 | CCCCc1nc2sc3c(SCC(=O)NCc4ccco4)ncnc3c2c2c1CCC2 | 2.5 nM
